Source: the NIST ThermoML archive (doi:10.1021/je200508x)
Numbers after ± are expanded uncertainties.

Settings: 101.33 kPa, Crystal, Vacuum adiabatic calorimetry

C=C(C)C(=O)[O][Sb]([O]C(=O)C(=C)C)([c]1ccccc1)([c]1ccccc1)[c]1ccccc1 [triphenyl-.lambda.5-stibanediyl bis(2-methylacrylate)]
Settings	molar entropy [J/K/mol]
5 K	0.671 ± 0.029
10 K	4.78 ± 0.07
15 K	12.1 ± 0.2
20 K	21.52 ± 0.2
25 K	32.28 ± 0.24
30 K	44.02 ± 0.2
35 K	56.34 ± 0.23
40 K	69.14 ± 0.27
45 K	82.14 ± 0.31
50 K	95.25 ± 0.35
60 K	121.6 ± 0.4
70 K	147.7 ± 0.5
80 K	173.5 ± 0.6
90 K	198.9 ± 0.6
100 K	223.7 ± 0.6
110 K	247.9 ± 0.7
120 K	271.6 ± 0.7
130 K	294.8 ± 0.7
140 K	317.4 ± 0.8
150 K	339.7 ± 0.8
160 K	362.6 ± 0.8
170 K	384.6 ± 0.9
180 K	405.6 ± 0.9
190 K	426.3 ± 0.9
200 K	446.6 ± 1
210 K	466.8 ± 1
220 K	486.7 ± 1
230 K	506.4 ± 1.1
240 K	526 ± 1.1
250 K	545.3 ± 1.1
260 K	564.5 ± 1.1
270 K	583.5 ± 1.2
280 K	602.3 ± 1.2
290 K	621.1 ± 1.2
298.15 K	636.3 ± 1.3
300 K	639.7 ± 1.3
310 K	658.3 ± 1.3
320 K	676.9 ± 1.3
330 K	695 ± 1
340 K	714 ± 1
350 K	732 ± 2
360 K	750 ± 2
370 K	768 ± 2
380 K	786 ± 2
390 K	804 ± 2
400 K	821 ± 2
